The results in this text go back to patent publication US20250051300A1, “GRAM-NEGATIVE SPECIFIC ANTIBIOTICS SPARING EFFECT ON GUT MICROBIOME” (THE BOARD OF TRUSTEES OF THE UNIVERSITY OF ILLINOIS, priority 2021, published 2025).

A word on the MIC: it is the smallest concentration in the dilution series that meets the test's criterion for growth inhibition. In general, IC50 refers to the concentration that inhibits the measured activity by half.

Where two headings read alike, the source gives them in different places.

Data set [1] in a line: Mouse maximum tolerated dose / tolerability. The data set is classed as in vivo. The method, then:
Mouse maximum tolerated dose (MTD) of compound 2 and lolamycin. […] In these studies, 10- to 12-week-old female C57BL/6 mice purchased from Charles River Laboratories were used. The maximum tolerated dose (MTD) of a single compound via IP injection was determined first. Compound 2 and lolamycin were formulated in 50% DMSO, 50% PEG400. Compound 2 and lolamycin were given by intraperitoneal (IP) injection. All the mice were monitored for signs of toxicity for 2 weeks. For multiple doses, the compound was given by daily IP injection for 5 consecutive days and the mice were monitored for signs of toxicity for 1 month. The MTD was the highest dosage with acceptable toxicity (for example, <20% weight loss).
Next, the MTD of lolamycin via oral gavage was determined. Lolamycin was formulated in 20% DMSO, 30% Water, and 50% PEG400. Lolamycin was given via oral gavage. All the mice were monitored for signs of toxicity for 2 weeks. For multiple doses, compound was given twice daily orally for 3 consecutive days and the mice were monitored for signs of toxicity. The MTD was the highest dosage with acceptable toxicity (for example, <20% weight loss). […] The MTD of lolamycin was used to inform the dosing schedule used in subsequent efficacy studies.

The test system of data set [2] is Bacteroides cellulosilyticus. The experiment in a line: MIC, gut commensal bacteria, micro-dilution broth.
A further data set deals with Bacteroides vulgatus. The experiment in a line: MIC, gut commensal bacteria, micro-dilution broth. For orientation: In broth dilution the organism is exposed to a series of concentrations in liquid medium.
A further data set relates to Proteus mirabilis. The experiment in a line: MIC, gut commensal bacteria, micro-dilution broth.
The subject of a further data set is K. pneumoniae BAA-1705. Description: Bacterial sepsis survival model. The data set is classed as in vivo, CD-1 mice. Conditions: carbapenem-resistant K. pneumoniae, 200 mg/kg IP once daily for 3 days (FIG. 7D).
In the next data set the test system is HFF-1 cells. Description: Cell viability (Alamar Blue), mammalian cell line. Conditions: Homo sapiens, HFF-1, 24 h, read-out: IC50, mammalian cell lines. The class given is cell-based. How it is done: (§1) Cell culture. HFF-1 cells (newborn) were obtained from the ATCC. […] A-549 cells (adult) were obtained from the ATCC. […] All cells were cultured at 37° C. under a 5% CO2 environment. Cell lines were authenticated externally by a commercial vendor and inspected visually in house. Cell lines were not tested for Mycoplasma contamination. The media was prepared by the University of Illinois School of Chemical Sciences Cell Media Facility. Cell viability. HFF-1 cells were seeded (8,000 cells/well) in a 96-well plate (Greiner Bio-One; catalogue number: 655180) and allowed to attach overnight. Cells were treated with investigational compounds in dimethyl sulfoxide (DMSO). […] Raptinal (100 μM) was used as a dead control. On each plate, at least three technical replicates per compound were performed. After 24 h post-treatment, cell viability was assessed using the Alamar Blue method. Stock Alamar Blue solution (10 μL 440 μM resazurin (Sigma-Aldrich; catalogue number: R7017) in sterile 1×PBS) was added to each well, and the plate was incubated for 3-4 h. Conversion of Alamar Blue was measured with a plate reader (SpectraMax M3; Molecular Devices) by fluorescence (excitation wavelength: 555 nm; emission wavelength: 585 nm; cutoff 570 nm; autogain). Percentage death was determined by normalizing to DMSO-treated cells and Raptinal-treated cells. […]

For another data set, the system named is A-549 cells. Description: Cell viability (Alamar Blue), mammalian cell line. The data set is classed as cell-based. Conditions: Homo sapiens, A549, read-out: IC50, mammalian cell lines (converted). How it is done: as §1
Background: The colour change of resazurin is a common sign of viable cells or microbes.

Another data set concerns Blautia producta. Description: MIC, gut commensal bacteria, micro-dilution broth.
The subject of data set [3] is E. cloacae AR0163. Description: Acute pneumonia bacterial burden model. The data set is classed as in vivo, CD-1 mice. Conditions: colistin-resistant E. cloacae, 100 mg/kg IP (FIG. 7E).
The test system of the next data set is Streptococcus salivarius. Description: MIC, gut commensal bacteria, micro-dilution broth.
A further data set relates to Morganella morganii. Description: MIC, gut commensal bacteria, micro-dilution broth.
The next data set has as its system Lactobacillus reuteri. Description: MIC, gut commensal bacteria, micro-dilution broth.
The next data set has as its system gut microbiome. Conditions: mouse, in vivo, po.
The subject of data set [4] is E. cloacae AR0163. The experiment in a line: Bacterial sepsis survival model. The class given is in vivo, CD-1 mice. The conditions noted are these: colistin-resistant E. cloacae, 100 mg/kg IP twice daily for 3 days (FIG. 7F).
Data set [5] relates to E. coli BW25113 LolC/LolE mutants. The experiment in a line: MIC against lolamycin-resistant LolCDE mutants. The data set is classed as cell-based, Escherichia coli.
In data set [6] the test system is Stenotrophomonas maltophilia. The experiment in a line: MIC, gut commensal bacteria, micro-dilution broth.
The subject of the next data set is K. pneumoniae AR0040. The experiment in a line: Acute pneumonia bacterial burden model. The data set is classed as in vivo, CD-1 mice. The conditions noted are these: colistin-resistant K. pneumoniae, 100 mg/kg IP (FIG. 7C).
In data set [7] the test system is Streptococcus parasanguinis. Description: MIC, gut commensal bacteria, micro-dilution broth.
Setting [8] is: C57BL/6 mice, daily dosing of 200 mg/kg for 5 consecutive days, IP.
Where [9] appears, read: C57BL/6 mice, single dose of 200 mg/kg, IP.
Where [10] appears, read: mice, 100 mg/kg twice a day for three days, IP.

`Fc1ccc(COc2cccc(-c3n[nH]cc3-c3ccncc3)c2)cc1` [Compound 2, 4-(3-(3-((4-fluorobenzyl)oxy)phenyl)-1H-pyrazol-4-yl)pyridine]: the figures for the tolerability entry in data set [1] (setting [8]), in [1] (setting [9]) and in data set [1] (setting [10]) were “well tolerated”, “well tolerated” and “well-tolerated”, respectively.

`Cc1cc(-c2c[nH]nc2-c2cccc(OCc3cccc(C#N)c3)c2)cc(C)n1` [Compound 12, 3-((3-(4-(2,6-dimethylpyridin-4-yl)-1H-pyrazol-3-yl)phenoxy)methyl)benzonitrile]: the MIC in data set [2] (Bacteroides cellulosilyticus) is greater than 128 µg/mL; in data set [2] (Bacteroides cellulosilyticus KLE 2342, BHI-ych, listed as Lolamycin), greater than 128 µg/mL; against Bacteroides vulgatus (Bacteroides vulgatus KLE 2303, BHI-ych, listed as Lolamycin), greater than 128 µg/mL; against Bacteroides vulgatus (Phocaeicola vulgatus), greater than 128 µg/mL; against Proteus mirabilis (Proteus mirabilis ATCC 35659, listed as Lolamycin) it was greater than 128 µg/mL; against Proteus mirabilis (Proteus mirabilis, ATCC35659) it was greater than 128 µg/mL. Also, the MIC in the data set on Blautia producta is greater than 128 µg/mL; against Blautia producta (Blautia producta, ATCC27340) it was greater than 128 µg/mL; with Streptococcus salivarius (Streptococcus salivarius) it was greater than 128 µg/mL; against Streptococcus salivarius (Streptococcus salivarius KLE 2370, BHI-ych, listed as Lolamycin) it was greater than 128 µg/mL; in the data set with Morganella morganii (ATCC25380), greater than 128 µg/mL; against Morganella morganii (ATCC25839), greater than 128 µg/mL. For the same compound, the MIC in the data set on Lactobacillus reuteri (Lactobacillus reuteri ATCC 23272, BHI-ych, listed as Lolamycin) is greater than 128 µg/mL; against Lactobacillus reuteri (Limosilactobacillus reuteri, ATCC23272), greater than 128 µg/mL; in [5] (E. coli BW25113 mutant D264N (LolE), selected at 32-fold MIC) it was greater than 128 µg/mL; in data set [5] (E. coli BW25113 mutant E195K (LolC), selected at 32-fold MIC), greater than 128 µg/mL; in data set [5] (E. coli BW25113 mutant E255D (LolC), selected at 32-fold MIC) it was greater than 128 µg/mL; in [5] (E. coli BW25113 mutant F367S (LolE), selected at 32-fold MIC), greater than 128 µg/mL. Moreover, the MIC in [5] (E. coli BW25113 mutant I206N (LolE), selected at 32-fold MIC) was greater than 128 µg/mL; in data set [5] (E. coli BW25113 mutant M262I (LolC), selected at 32-fold MIC) it was greater than 128 µg/mL; in data set [5] (E. coli BW25113 mutant N265K (LolC), selected at 32-fold MIC), greater than 128 µg/mL; in [5] (E. coli BW25113 mutant Q258P (LolC), selected at 32-fold MIC), greater than 128 µg/mL; in [5] (Escherichia coli, BW25113), greater than 128 µg/mL; in [6] (Stenotrophomonas maltophilia ATCC 13637, BHI-ych, listed as Lolamycin), greater than 128 µg/mL. The MIC in data set [6] (Stenotrophomonas maltophilia, ATCC13637) is greater than 128 µg/mL; in data set [7] (Streptococcus parasanguinis), greater than 128 µg/mL; in [7] (Streptococcus parasanguinis KLE 2375, BHI-ych, listed as Lolamycin), greater than 128 µg/mL. The “efficacy, survival” value in the data set on K. pneumoniae BAA-1705 and in the data set with E. cloacae AR0163 [4] was “showed the efficacy” each time. Moreover, the tolerability result is reported as “well tolerated” in data set [1] (setting [8]); “well tolerated” in data set [1] (setting [9]); “well-tolerated” in [1] (setting [10]); “well tolerated” in data set [1] (mice, 200 mg/kg twice a day for three days, oral gavage, listed as Lolamycin, 200 mg/kg); “well-tolerated” in data set [1] (mice, 200 mg/kg twice a day for three days, oral gavage, listed as lolamycin, 200 mg/kg). The values for the IC50 with HFF-1 cells and with A-549 cells were 85.3 ± 11.8 µM and 41.9 µM, respectively. The “efficacy, bacterial burden” value in the data set on E. cloacae AR0163 [3] and in the data set on K. pneumoniae AR0040 was “showed the efficacy” in each case. The “effect on gut microbiome taxonomic composition” value in the data set on gut microbiome was “did not cause any drastic changes in taxonomic composition”.
